Results: ChEMBL document CHEMBL3045268, “Synthesis, anticancer, and molecular docking studies of pyranone derivatives” (Med Chem Res, 2013)

What was measured:
Mus musculus [1] = assay: Toxicity in Mus musculus (mouse) transplanted with mouse EAC cells assessed as effect on monocytes level at 75 mg/kg, ip measured on day 13 post tumor implantation (reference value: 1.4 +/- 0.24%); format: organism-based, Ehrlich; parameters: dose 75 mg/kg, route intraperitoneal; conditions: in vivo
Mus musculus [2] = assay: Toxicity in Mus musculus (mouse) transplanted with mouse EAC cells assessed as effect on neutrophils level at 75 mg/kg, ip measured on day 13 post tumor implantation (reference value: 60.4 +/- 1.5%); format: organism-based, Ehrlich; parameters: dose 75 mg/kg, route intraperitoneal; conditions: in vivo
Mus musculus [3] = assay: Toxicity in Mus musculus (mouse) transplanted with mouse EAC cells assessed as effect on lymphocytes level at 75 mg/kg, ip measured on day 13 post tumor implantation (reference value: 35.8 +/- 1.15%); format: organism-based, Ehrlich; parameters: dose 75 mg/kg, route intraperitoneal; conditions: in vivo
Mus musculus [4] = assay: Toxicity in Mus musculus (mouse) transplanted with mouse EAC cells assessed as effect on WBC level measured per 10^3 cells at 75 mg/kg, ip on day 13 post tumor implantation (reference value: 19.49 +/- 0.26 mm3); format: organism-based, Ehrlich; parameters: dose 75 mg/kg, route intraperitoneal; conditions: in vivo
Mus musculus [5] = assay: Toxicity in Mus musculus (mouse) transplanted with mouse EAC cells assessed as effect on RBC level at 75 mg/kg, ip measured on day 13 post tumor implantation (reference value: 3.95 +/- 0.32 million/mm3); format: organism-based, Ehrlich; parameters: dose 75 mg/kg, route intraperitoneal; conditions: in vivo
Mus musculus [6] = assay: Toxicity in Mus musculus (mouse) transplanted with mouse EAC cells assessed as increase in hemoglobin level at 75 mg/kg, ip measured on day 13 post tumor implantation (reference value: 7.5 +/- 0.01 g%); format: organism-based, Ehrlich; parameters: dose 75 mg/kg, route intraperitoneal; conditions: in vivo
[7] = Antitumor activity against Mus musculus (mouse) EAC cells transplanted in mouse assessed as increase in life span at 75 mg/kg, ip relative to vehicle-treated control; format: functional, Ehrlich; conditions: route intraperitoneal
[8] = Antitumor activity against Mus musculus (mouse) EAC cells transplanted in mouse assessed as decrease in body weight at 75 mg/kg, ip measured up to 11 days relative to vehicle-treated control; format: functional, Ehrlich; parameters: scale not given: the % may be the effect or the level left; conditions: route intraperitoneal
Mus musculus [9] = assay: Toxicity in Mus musculus (mouse) transplanted with mouse EAC cells assessed as increase in hemoglobin level at 20 mg/kg, ip measured on day 13 post tumor implantation (reference value: 7.5 +/- 0.01 g%); format: organism-based, Ehrlich; parameters: dose 20 mg/kg, route intraperitoneal; conditions: in vivo
Mus musculus [10] = assay: Toxicity in Mus musculus (mouse) transplanted with mouse EAC cells assessed as effect on monocytes level at 20 mg/kg, ip measured on day 13 post tumor implantation (reference value: 1.4 +/- 0.24%); format: organism-based, Ehrlich; parameters: dose 20 mg/kg, route intraperitoneal; conditions: in vivo
Mus musculus [11] = assay: Toxicity in Mus musculus (mouse) transplanted with mouse EAC cells assessed as effect on neutrophils level at 20 mg/kg, ip measured on day 13 post tumor implantation (reference value: 60.4 +/- 1.5%); format: organism-based, Ehrlich; parameters: dose 20 mg/kg, route intraperitoneal; conditions: in vivo
Mus musculus [12] = assay: Toxicity in Mus musculus (mouse) transplanted with mouse EAC cells assessed as effect on lymphocytes level at 20 mg/kg, ip measured on day 13 post tumor implantation (reference value: 35.8 +/- 1.15%); format: organism-based, Ehrlich; parameters: dose 20 mg/kg, route intraperitoneal; conditions: in vivo
Mus musculus [13] = assay: Toxicity in Mus musculus (mouse) transplanted with mouse EAC cells assessed as effect on WBC level measured per 10^3 cells at 20 mg/kg, ip on day 13 post tumor implantation (reference value: 19.49 +/- 0.26 mm3); format: organism-based, Ehrlich; parameters: dose 20 mg/kg, route intraperitoneal; conditions: in vivo
[14] = Antitumor activity against Mus musculus (mouse) EAC cells transplanted in mouse assessed as increase in life span at 20 mg/kg, ip relative to vehicle-treated control; format: functional, Ehrlich; conditions: route intraperitoneal
Mus musculus [15] = assay: Toxicity in Mus musculus (mouse) transplanted with mouse EAC cells assessed as effect on RBC level at 20 mg/kg, ip measured on day 13 post tumor implantation (reference value: 3.95 +/- 0.32 million/mm3); format: organism-based, Ehrlich; parameters: dose 20 mg/kg, route intraperitoneal; conditions: in vivo

Compound	Activity (Mus musculus [1]) [%]	Activity (Mus musculus [2]) [%]	Activity (Mus musculus [3]) [%]	Activity (Mus musculus [4])	Activity (Mus musculus [5]) [million/mm3]	Activity (Mus musculus [6]) [g%]	Activity [7] [%]	Activity [8] [%]	Activity (Mus musculus [9]) [g%]	Activity (Mus musculus [10]) [%]	Activity (Mus musculus [11]) [%]	Activity (Mus musculus [12]) [%]	Activity (Mus musculus [13]) [mm3]	Activity [14] [%]	Activity (Mus musculus [15]) [million/mm3]
Cc1cc(O)c(-c2csc(N3C(=O)CSC3c3ccc(Cl)cc3)n2)c(=O)o1 (stereo unspecified)	3	52.2	44	18.2 10^3 cells/mm3	2.76	8.54	20.83	49.73	–	–	–	–	–	–	–
Cc1cc(O)c(-c2csc(N3C(=O)CSC3c3cccc([N+](=O)[O-])c3)n2)c(=O)o1 (stereo unspecified)	4	63.2	32	33.9 10^3 cells/mm3	19.07	11.35	-23.95	33.5	–	–	–	–	–	–	–
Cc1cc(O)c(-c2csc(N3C(=O)CSC3c3ccc(O)cc3)n2)c(=O)o1 (stereo unspecified)	4.8	34	61	16.6 10^3 cells/mm3	5.63	13.08	34.37	61.78	–	–	–	–	–	–	–
COc1cc(C2SCC(=O)N2c2nc(-c3c(O)cc(C)oc3=O)cs2)cc(OC)c1OC (stereo unspecified)	2	58.2	39.4	19.2 10^3 cells/mm3	17.78	10.48	-1.04	-1.047	–	–	–	–	–	–	–
Cc1cc(O)c(-c2csc(NC(=O)CN3CCN(c4ccc(F)cc4)CC3)n2)c(=O)o1	3	66	31	17.6 10^3 cells/mm3	17.29	11.96	-39.58	48.32	–	–	–	–	–	–	–
Cc1cc(O)c(-c2csc(NC(=O)CN3CCN(C(=O)c4ccco4)CC3)n2)c(=O)o1	4.6	34	62	48.6 10^3 cells/mm3	6.28	13.21	-12.5	46.59	–	–	–	–	–	–	–
COc1ccccc1N1CCN(CC(=O)Nc2nc(-c3c(O)cc(C)oc3=O)cs2)CC1	4.8	25	70	15.7 10^3 cells/mm3	4.12	12.52	27.08	58.11	–	–	–	–	–	–	–
Cc1cc(O)c(-c2csc(NC(=O)CN3CCN(C)CC3)n2)c(=O)o1	1.4	63.2	35.4	19.6 10^3 cells/mm3	5	10.64	-1.04	-1.007	–	–	–	–	–	–	–
O=c1[nH]cc(F)c(=O)[nH]1 [FLUOROURACIL]	–	–	–	–	–	–	–	–	13.99	1.2	27.8	71	15.6	57.29	4.67
